Tests used:
Assay type in all cases: cell-based, human
[1] = tested on: HOP-62; test: NCI60 antitumor screening; conditions: 10 μM one-dose
[2] = tested on: UACC-62; test: NCI60 antitumor screening; conditions: 10 μM one-dose
[3] = tested on: MDA-MB-231/ATCC; test: NCI60 antitumor screening; conditions: 10 μM one-dose
[4] = tested on: HS 578T; test: NCI60 antitumor screening; conditions: 10 μM one-dose
[5] = tested on: RXF 393; test: NCI60 antitumor screening; conditions: 10 μM one-dose
[6] = tested on: K-562; test: NCI60 antitumor screening; conditions: 10 μM one-dose
[7] = tested on: SR; test: NCI60 antitumor screening; conditions: 10 μM one-dose
[8] = tested on: NCI-H460; test: NCI60 antitumor screening; conditions: 10 μM one-dose
[9] = tested on: SNB-75; test: NCI60 antitumor screening; conditions: 10 μM one-dose
[10] = tested on: UO-31; test: NCI60 antitumor screening; conditions: 10 μM one-dose
[11] = tested on: MALME-3M; test: NCI60 antitumor screening; conditions: 10 μM one-dose
[12] = tested on: MOLT-4; test: NCI60 antitumor screening; conditions: 10 μM one-dose
[13] = tested on: RPMI-8226; test: NCI60 antitumor screening; conditions: 10 μM one-dose
[14] = tested on: T-47D; test: NCI60 antitumor screening; conditions: 10 μM one-dose
[15] = tested on: NCI60 cell lines panel; test: NCI60 antitumor screening, full panel; conditions: 10 μM one-dose, mean over NCI60
Protocol: The National Cancer Institute (NCI), Bethesda, Maryland, United States, selected all of the novel synthesized compounds (2b–d, 3a–d and 4a–p) for in vitro antitumor screening at a single concentration of 10 μM toward the NCI60 cell lines panel covering leukaemia, non-small cell lungs, colon, central nervous system (CNS), melanoma, ovarian, renal, prostate, and breast cancer cells.[32–35] The data were reported as a mean graph of the percent growth of the treated cell lines and expressed as percentage growth inhibition (GI%) in Table 1 and ESI 1.
(2) The molar concentration of the compound responsible for total growth inhibition, also known as total growth inhibition (TGI).
Regarding subpanel selectivity toward certain cancer type, the method of determining a compound's selectivity index is to divide the full panel MG-MID (μM) value by each single subpanel. Values above six indicate high selectivity against the subpanel; moderate selectivity is denoted by values between three and six. Conversely, compounds are termed nonselective if their selectivity is less than three.[30,37]

[16] = tested on: PC-3; test: NCI60 antitumor screening; conditions: 10 μM one-dose
[17] = tested on: OVCAR-3; test: NCI60 antitumor screening; conditions: 10 μM one-dose
[18] = tested on: SF-539; test: NCI60 antitumor screening; conditions: 10 μM one-dose
[19] = tested on: NCI-H522; test: NCI60 antitumor screening; conditions: 10 μM one-dose
[20] = tested on: COLO 205; test: NCI60 antitumor screening; conditions: 10 μM one-dose
[21] = tested on: LOX IMVI; test: NCI60 antitumor screening; conditions: 10 μM one-dose
[22] = tested on: EKVX; test: NCI60 antitumor screening; conditions: 10 μM one-dose
[23] = tested on: NCI-H322M; test: NCI60 antitumor screening; conditions: 10 μM one-dose
[24] = tested on: M14; test: NCI60 antitumor screening; conditions: 10 μM one-dose
[25] = tested on: 786–0; test: NCI60 antitumor screening; conditions: 10 μM one-dose
[26] = tested on: MDA-MB-435; test: NCI60 antitumor screening; conditions: 10 μM one-dose
[27] = tested on: SK-OV-3; test: NCI60 antitumor screening; conditions: 10 μM one-dose
[28] = tested on: DU-145; test: NCI60 antitumor screening; conditions: 10 μM one-dose
[29] = tested on: SN12C; test: NCI60 antitumor screening; conditions: 10 μM one-dose
[30] = tested on: A549/ATCC; test: NCI60 antitumor screening; conditions: 10 μM one-dose
[31] = tested on: OVCAR-5; test: NCI60 antitumor screening; conditions: 10 μM one-dose
[32] = tested on: HCT-15; test: NCI60 antitumor screening; conditions: 10 μM one-dose
[33] = tested on: ACHN; test: NCI60 antitumor screening; conditions: 10 μM one-dose
[34] = tested on: HT29; test: NCI60 antitumor screening; conditions: 10 μM one-dose
[35] = tested on: OVCAR-8; test: NCI60 antitumor screening; conditions: 10 μM one-dose
[36] = tested on: SK-MEL-2; test: NCI60 antitumor screening; conditions: 10 μM one-dose
[37] = tested on: BT-549; test: NCI60 antitumor screening; conditions: 10 μM one-dose
[38] = tested on: HOP-92; test: NCI60 antitumor screening; conditions: 10 μM one-dose
[39] = tested on: CAKI-1; test: NCI60 antitumor screening; conditions: 10 μM one-dose
[40] = tested on: IGROV1; test: NCI60 antitumor screening; conditions: 10 μM one-dose
[41] = tested on: MDA-MB-468; test: NCI60 antitumor screening; conditions: 10 μM one-dose
[42] = tested on: NCI-H23; test: NCI60 antitumor screening; conditions: 10 μM one-dose
[43] = tested on: NCI/ADR-RES; test: NCI60 antitumor screening; conditions: 10 μM one-dose
[44] = tested on: SF-295; test: NCI60 antitumor screening; conditions: 10 μM one-dose
[45] = tested on: UACC-257; test: NCI60 antitumor screening; conditions: 10 μM one-dose
[46] = tested on: HCT-116; test: NCI60 antitumor screening; conditions: 10 μM one-dose
[47] = tested on: NCI-H226; test: NCI60 antitumor screening; conditions: 10 μM one-dose
[48] = tested on: SK-MEL-5; test: NCI60 antitumor screening; conditions: 10 μM one-dose
[49] = tested on: SK-MEL-28; test: NCI60 antitumor screening; conditions: 10 μM one-dose
[50] = tested on: MCF7; test: NCI60 antitumor screening; conditions: 10 μM one-dose
[51] = tested on: U251; test: NCI60 antitumor screening; conditions: 10 μM one-dose
[52] = tested on: KM12; test: NCI60 antitumor screening; conditions: 10 μM one-dose
[53] = tested on: HL-60(TB); test: NCI60 antitumor screening; conditions: 10 μM one-dose
[54] = tested on: CCRF-CEM; test: NCI60 antitumor screening; conditions: 10 μM one-dose
[55] = tested on: SW-620; test: NCI60 antitumor screening; conditions: 10 μM one-dose
[56] = tested on: SF-268; test: NCI60 antitumor screening; conditions: 10 μM one-dose
[57] = tested on: TK-10; test: NCI60 antitumor screening; conditions: 10 μM one-dose
[58] = tested on: A498; test: NCI60 antitumor screening; conditions: 10 μM one-dose
[59] = tested on: SNB-19; test: NCI60 antitumor screening; conditions: 10 μM one-dose
[60] = tested on: OVCAR-4; test: NCI60 antitumor screening; conditions: 10 μM one-dose
[61] = tested on: HCC-2998; test: NCI60 antitumor screening; conditions: 10 μM one-dose

N#Cc1c(Cl)nc(SCc2ccccc2)nc1-c1ccc(F)cc1 [3a, 2-(Benzylthio)-4-chloro-6-(4-fluorophenyl) pyrimidine-5-carbonitrile]
27.87%: GI% [44]
27.14%: GI% [35]
21.66%: GI% [39]
10.38%: GI% [14]
22.79%: GI% [46]
21.56%: GI% [56]
11.78%: GI% [6]
16.76%: GI% [4]
38.26%: GI% [25]
11.73%: GI% [37]
16.70%: GI% [59]
14.74%: GI% [38]
— (GI% < 10): GI% [2] | GI% [7] | GI% [8] | GI% [9] | GI% [11] | GI% [12] | GI% [13] | Mean GI% [15] | GI% [16] | GI% [17] | GI% [20] | GI% [21] | GI% [22] | GI% [23] | GI% [24] | GI% [26] | GI% [27] | GI% [28] | GI% [29] | GI% [31] | GI% [32] | GI% [34] | GI% [36] | GI% [40] | GI% [41] | GI% [42] | GI% [45] | GI% [48] | GI% [49] | GI% [50] | GI% [52] | GI% [54] | GI% [55] | GI% [57] | GI% [58] | GI% [61]
16.01%: GI% [19]
16.44%: GI% [30]
45.51%: GI% [33]
44.03%: GI% [53]
14.25%: GI% [10]
12.77%: GI% [1]
21.72%: GI% [3]
49.74%: GI% [60]
18.61%: GI% [47]
20.64%: GI% [43]
39.15%: GI% [51]
24.06%: GI% [18]
19.19%: GI% [5]

N#Cc1c(-c2ccc(F)cc2)nc(SCc2ccccc2)nc1N1CCOCC1 [4a, 2-(Benzylthio)-4-(4-fluorophenyl)-6-morpholinopyrimidine-5-carbonitrile]
16.81%: GI% [19]
13.24%: GI% [2]
19.87%: GI% [4]
15.08%: GI% [38]
16.91%: GI% [18]
10.32%: GI% [43]
— (GI% < 10): GI% [1] | GI% [5] | GI% [7] | GI% [8] | GI% [9] | GI% [10] | GI% [11] | GI% [12] | GI% [13] | Mean GI% [15] | GI% [16] | GI% [17] | GI% [20] | GI% [21] | GI% [22] | GI% [23] | GI% [24] | GI% [25] | GI% [26] | GI% [27] | GI% [28] | GI% [29] | GI% [30] | GI% [31] | GI% [32] | GI% [33] | GI% [34] | GI% [36] | GI% [39] | GI% [40] | GI% [41] | GI% [42] | GI% [44] | GI% [45] | GI% [47] | GI% [48] | GI% [49] | GI% [50] | GI% [51] | GI% [52] | GI% [54] | GI% [55] | GI% [56] | GI% [57] | GI% [58] | GI% [59] | GI% [60] | GI% [61]
10.37%: GI% [46]
10.65%: GI% [3]
21.20%: GI% [35]
15.89%: GI% [14]
19.15%: GI% [37]
31.31%: GI% [53]
16.46%: GI% [6]
